Reference: patent publication US11053250B2, “Pyrrolo[1,2-b]pyridazine derivatives” (Gilead Sciences, Inc., priority 2018, dated 2021)
pEC50, pIC50: −log10 of the molar value.

What was measured:
[1] = test system: TNFα; assay: IRAK4 Monocyte TNFα Cell Based Assay; conditions: cryopreserved human monocytes, LPS 50 pg/ml stimulation, TNFα by TR-FRET
Outline: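 Cells (5,000/well) preincubated with compound 1 h at 37° C (0.1% DMSO), then stimulated 4 h with 50 pg/ml LPS. Supernatant TNFα quantified by TR-FRET (665/615 nm ratio). Percent of control scaled between unstimulated (0%) and LPS-stimulated (100%) wells.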

[2] = molecular target: IRAK4 enzyme (Homo sapiens (Human), UniProt Q9NWZ3); assay: IRAK4 Biochemical Assay (TR-FRET/HTRF); conditions: 0.75 nM IRAK4, 500 μM ATP, STK1 peptide
Outline: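 Compound was preincubated 15 min with 0.75 nM IRAK4 and 2 µM STK1 peptide. Reaction ran 120 min at room temperature with 500 µM ATP in HEPES pH 7.0 buffer (5 mM MgCl2, 1 mM DTT), then HTRF detection of phosphopeptide as the 665/615 nm ratio. % inhibition is relative to no-inhibitor and saturating-staurosporine controls.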

Chain of IRAK4 enzyme (Q9NWZ3 whole entry): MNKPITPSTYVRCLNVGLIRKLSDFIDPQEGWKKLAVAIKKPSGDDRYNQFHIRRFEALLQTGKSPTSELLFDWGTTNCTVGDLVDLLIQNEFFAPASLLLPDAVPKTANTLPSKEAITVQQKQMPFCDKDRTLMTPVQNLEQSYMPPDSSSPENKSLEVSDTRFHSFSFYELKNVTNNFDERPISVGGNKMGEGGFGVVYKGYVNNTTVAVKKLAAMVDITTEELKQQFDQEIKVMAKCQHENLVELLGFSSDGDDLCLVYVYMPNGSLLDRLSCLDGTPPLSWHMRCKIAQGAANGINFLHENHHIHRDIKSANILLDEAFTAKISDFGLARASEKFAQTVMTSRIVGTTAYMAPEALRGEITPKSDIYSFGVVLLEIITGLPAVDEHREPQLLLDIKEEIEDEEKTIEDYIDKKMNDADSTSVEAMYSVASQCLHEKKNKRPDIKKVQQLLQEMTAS

Question: With `CNc1cc(-c2ccc3cc(C#N)cnn23)ncc1-c1cn(CCC(C)(C)O)nn1` [Compound 26, 7-(5-(1-(3-hydroxy-3-methylbutyl)-1H-1,2,3-triazol-4-yl)-4-(methylamino)pyridin-2-yl)pyrrolo[1,2-b]pyridazine-3-carbonitrile] as the molecule, how does the pEC50 ([1]; Monocyte) read?
Answer: Its pEC50 is 7.10.

Question: And the pIC50 [2]?
Answer: Its pIC50 is 8.70.

Question: `COC(=O)NC[C@H]1C[C@H](Nc2cc(-c3ccc4cc(C#N)cnn34)ncc2-c2cn([C@H]3CC[C@H](NC(=O)C4CC4)CC3)nn2)C1` [Compound 19, methyl (((1R,3r)-3-((2-(3-cyanopyrrolo[1,2-b]pyridazin-7-yl)-5-(1-((1r,4R)-4-(cyclopropanecarboxamido)cyclohexyl)-1H-1,2,3-triazol-4-yl)pyridin-4-yl)amino)cyclobutyl)methyl)carbamate] was tested. Which pEC50 [1] did it give?
Answer: Its pEC50 is 8.05.

Question: And the pIC50 [2]?
Answer: Its pIC50 is greater than 9.00.

Question: Which results are given for `COC(=O)NC[C@H]1C[C@H](Nc2cc(-c3ccc4cc(C#N)cnn34)ncc2-c2cn(C)nn2)C1` [Compound 33, methyl (((1r,3r)-3-((2-(3-cyanopyrrolo[1,2-b]pyridazin-7-yl)-5-(1-methyl-1H-1,2,3-triazol-4-yl)pyridin-4-yl)amino)cyclobutyl)methyl)carbamate]?
Answer: pEC50 [1]: 7.36; pIC50 [2]: > 9.00

Question: How did the pEC50 ([1]; Monocyte) turn out when `CC(C)Nc1cc(-c2ccc3cc(C#N)cnn23)ncc1-c1cn(C2CCN(S(C)(=O)=O)CC2)nn1` [Compound 41, 7-(4-(isopropylamino)-5-(1-(1-(methylsulfonyl)piperidin-4-yl)-1H-1,2,3-triazol-4-yl)pyridin-2-yl)pyrrolo[1,2-b]pyridazine-3-carbonitrile] was run?
Answer: The pEC50 was 7.15.

Question: And the pIC50 [2]?
Answer: The pIC50 was 9.00.

Question: Which results are given for `COC(=O)NCC1CC(Nc2cc(-c3ccc4cc(C#N)cnn34)ncc2-c2cn(CC3CC(O)C3)nn2)C1` [Compound 8, methyl (((1R,3r)-3-((2-(3-cyanopyrrolo[1,2-b]pyridazin-7-yl)-5-(1-(((1s,3S)-3-hydroxycyclobutyl)methyl)-1H-1,2,3-triazol-4-yl)pyridin-4-yl)amino)cyclobutyl)methyl)carbamate]?
Answer: pEC50 [1]: 7.77; pIC50 [2]: > 9.00

Question: What does the source list for `CC(C)Nc1cc(-c2ccc3cc(C#N)cnn23)ncc1-c1cn(CC(=O)N(C)C)nn1` [Compound 44, 2-(4-(6-(3-cyanopyrrolo[1,2-b]pyridazin-7-yl)-4-(isopropylamino)pyridin-3-yl)-1H-1,2,3-triazol-1-yl)-N,N-dimethylacetamide]?
Answer: pEC50 ([1]; Monocyte): 7.21; pIC50 [2]: 9.00

Question: How did the pEC50 [1] turn out when `COC(=O)NC[C@H]1C[C@H](Nc2cc(-c3ccc4cc(C#N)cnn34)ncc2-c2cn(CC(=O)N3CC(F)(F)C3)nn2)C1` [Compound 14, methyl (((1r,3r)-3-((2-(3-cyanopyrrolo[1,2-b]pyridazin-7-yl)-5-(1-(2-(3,3-difluoroazetidin-1-yl)-2-oxoethyl)-1H-1,2,3-triazol-4-yl)pyridin-4-yl)amino)cyclobutyl)methyl)carbamate] was run?
Answer: Its pEC50 is 7.74.

Question: And the pIC50 [2]?
Answer: Its pIC50 is greater than 9.00.

Question: How did the pEC50 ([1]; Monocyte) turn out when `CC(C)(O)[C@H](F)Cn1cc(-c2cnc(-c3ccc4cc(C#N)cnn34)cc2N[C@H]2CCC[C@@H](O)C2)nn1` [Compound 13, 7-(5-(1-((R)-2-fluoro-3-hydroxy-3-methylbutyl)-1H-1,2,3-triazol-4-yl)-4-(((1S,3R)-3-hydroxycyclohexyl)amino)pyridin-2-yl)pyrrolo[1,2-b]pyridazine-3-carbonitrile] was run?
Answer: The pEC50 was 8.30.

Question: What about the pIC50 [2] of the same molecule?
Answer: The pIC50 was greater than 9.00.

Question: What does the source list for `CC(C)Nc1cc(-c2ccc3cc(C#N)cnn23)ncc1-c1cn(C)nn1` [Compound 55, 7-(4-(isopropylamino)-5-(1-methyl-1H-1,2,3-triazol-4-yl)pyridin-2-yl)pyrrolo[1,2-b]pyridazine-3-carbonitrile]?
Answer: pEC50 ([1]; Monocyte): 6.79; pIC50 [2]: 8.70

Question: `CC(C)Nc1cc(-c2ccc3cc(C#N)cnn23)ncc1-c1cn(C[C@@H](F)C(C)(C)O)nn1` [Compound 49, (R)-7-(5-(1-(2-fluoro-3-hydroxy-3-methylbutyl)-1H-1,2,3-triazol-4-yl)-4-(isopropylamino)pyridin-2-yl)pyrrolo[1,2-b]pyridazine-3-carbonitrile] was tested. Which pEC50 ([1]; Monocyte) did it give?
Answer: The pEC50 was 7.52.

Question: What about the pIC50 [2] of the same molecule?
Answer: The pIC50 was greater than 9.00.

Question: How did the pEC50 [1] turn out when `CNc1cc(-c2ccc3cc(C#N)cnn23)ncc1-c1cn([C@H]2CC[C@H](NC(=O)C3CC3)CC2)nn1` [Compound 20, N-((1r,4r)-4-(4-(6-(3-cyanopyrrolo[1,2-b]pyridazin-7-yl)-4-(methylamino)pyridin-3-yl)-1H-1,2,3-triazol-1-yl)cyclohexyl)cyclopropanecarboxamide] was run?
Answer: Its pEC50 is 7.21.

Question: And the pIC50 [2]?
Answer: Its pIC50 is 9.00.

Question: `CC(C)Nc1cc(-c2ccc3cc(C#N)cnn23)ncc1-c1cn(C2(C(F)(F)F)CC2)nn1` [Compound 58, 7-(4-(isopropylamino)-5-(1-(1-(trifluoromethyl)cyclopropyl)-1H-1,2,3-triazol-4-yl)pyridin-2-yl)pyrrolo[1,2-b]pyridazine-3-carbonitrile] was tested. Which pEC50 ([1]; Monocyte) did it give?
Answer: The pEC50 was 5.91.

Question: And the pIC50 [2]?
Answer: Its pIC50 is 7.92.

Question: With `CC(C)Nc1cc(-c2ccc3cc(C#N)cnn23)ncc1-n1cc(C2CCOCC2)nn1` [Compound 60, 7-(4-(isopropylamino)-5-(4-(tetrahydro-2H-pyran-4-yl)-1H-1,2,3-triazol-1-yl)pyridin-2-yl)pyrrolo[1,2-b]pyridazine-3-carbonitrile] as the molecule, how does the pEC50 ([1]; Monocyte) read?
Answer: The pEC50 was 6.74.

Question: And the pIC50 [2]?
Answer: The pIC50 was 8.70.

Question: With `CNc1cc(-c2ccc3cc(C#N)cnn23)ncc1-c1cn(CC(F)F)nn1` [Compound 27, 7-(5-(1-(2,2-difluoroethyl)-1H-1,2,3-triazol-4-yl)-4-(methylamino)pyridin-2-yl)pyrrolo[1,2-b]pyridazine-3-carbonitrile] as the molecule, how does the pEC50 ([1]; Monocyte) read?
Answer: Its pEC50 is 6.47.

Question: What about the pIC50 [2] of the same molecule?
Answer: The pIC50 was 8.05.

Question: How did the pEC50 [1] turn out when “7-(4-(isopropylamino)-5-(1-propyl-1H-1,2,3-triazol-4-yl)pyridin-2-yl)pyrrolo[1,2-b]pyridazine-3-carbonitrile [Compound 54]” was run?
Answer: Its pEC50 is 7.05.

Question: And the pIC50 [2]?
Answer: Its pIC50 is 9.00.

Question: How did the pEC50 ([1]; Monocyte) turn out when `CC(=O)N1CCC(n2cc(-c3cnc(-c4ccc5cc(C#N)cnn45)cc3NC(C)C)nn2)CC1` [Compound 42, 7-(5-(1-(1-acetylpiperidin-4-yl)-1H-1,2,3-triazol-4-yl)-4-(isopropylamino)pyridin-2-yl)pyrrolo[1,2-b]pyridazine-3-carbonitrile] was run?
Answer: The pEC50 was 7.48.

Question: And the pIC50 [2]?
Answer: The pIC50 was 9.00.
